Source: patent publication US11085056B2, “Transfection complexes and methods of using the same” (MOLECULAR TRANSFER, INC., priority 2015, dated 2021)

What was measured:
[1] = tested on: HeLa Cells; assay: Transfection of HeLa cells with DOTMA/SEQ ID NO: 72/peptide compared with Lipofectamine 2000; type: cell-based; settings: fusogenic peptide 0.1 mg/mL
How it was run: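 HeLa cells at 60–70% confluence received 0.01 mL of complexes of EF1Alpha eGFP plasmid (5 μg/mL in OptiMEM) with DOTMA/DOPE (1:1) plus R12-linked peptide, with fusogenic peptide at 0.1 mg/mL final. GFP read by fluorescence plate reader and microscopy (% cells transfected) after 42 h at 37 °C.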

[2] = tested on: Jurkat Cells; assay: Transfection of Jurkat cells with DOTMA/DOPE/peptide and eGFP plasmid, fluorescent plate reader; type: cell-based; settings: DOTMA/DOPE 1:1 plus peptide with RRRRRRRRRRRR (SEQ ID NO: 109) at n terminus; EF1Alpha eGFP plasmid; 0.02 mL complex; 42 hours
How it was run: (§1)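 Cells at 60-70% confluence got DOTMA/DOPE (1:1) mixed with peptides bearing an N-terminal R12 DNA-binding tag, complexed 10 min with EF1α-eGFP plasmid (5 μg/mL in OptiMEM); 0.01 or 0.02 mL complex per well. After 42 h at 37 °C, GFP read by fluorescence plate reader and % transfected cells by microscopy, relative to lipid without peptide.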

[3] = tested on: some examined cell types; assay: Transfection expression and % cells transfected over the no peptide control; type: cell-based; settings: on some examined cell types
How it was run: as §1

[4] = tested on: HuVec Cells; assay: Transfection of HuVec cells with DOTMA/DOPE/peptide and eGFP plasmid, fluorescent plate reader; type: cell-based; settings: DOTMA/DOPE 1:1 plus peptide with RRRRRRRRRRRR (SEQ ID NO: 109) at n terminus; EF1Alpha eGFP plasmid; 0.01 mL complex; 42 hours
How it was run: as §1

[5] = tested on: Human Fibroblast Cells; assay: Transfection of human fibroblast cells with DOTMA/DOPE/peptide and eGFP plasmid, fluorescent plate reader; type: cell-based; settings: DOTMA/DOPE 1:1 plus peptide with RRRRRRRRRRRR (SEQ ID NO: 109) at n terminus; EF1Alpha eGFP plasmid; 0.01 mL complex; 42 hours
How it was run: as §1

[6] = tested on: C2C12 Cells; assay: Transfection of C2C12 cells with DOTMA/DOPE/peptide and eGFP plasmid, fluorescent plate reader; type: cell-based, mouse; settings: DOTMA/DOPE 1:1 plus peptide with RRRRRRRRRRRR (SEQ ID NO: 109) at n terminus; EF1Alpha eGFP plasmid; 0.02 mL complex; 42 hours
How it was run: as §1

[7] = tested on: NL-1 iPS Cells; assay: Transfection of NL-1 iPS cells with DOTMA/DOPE/peptide and eGFP plasmid, fluorescent plate reader; type: cell-based; settings: DOTMA/DOPE 1:1 plus peptide with RRRRRRRRRRRR (SEQ ID NO: 109) at n terminus; EF1Alpha eGFP plasmid; 42 hours
[8] = tested on: HeLa Cells; assay: Transfection of HeLa cells with DOTMA/DOPE/peptide and eGFP plasmid, fluorescent plate reader; type: cell-based; settings: DOTMA/DOPE 1:1 plus peptide with RRRRRRRRRRRR (SEQ ID NO: 109) at n terminus; EF1Alpha eGFP plasmid; 0.01 mL complex; 42 hours
How it was run: as §1

[9] = 0.1 μL of DOTMA/SEQ ID NO: 72/Peptide in well of a 96 well plate
[10] = 0.2 μL of DOTMA/SEQ ID NO: 72/Peptide in well of a 96 well plate
[11] = 0.3 μL of DOTMA/SEQ ID NO: 72/Peptide in well of a 96 well plate
[12] = 0.4 μL of DOTMA/SEQ ID NO: 72/Peptide in well of a 96 well plate

Substance | RF (Relative Fluorescence), DOTMA/SEQ ID NO: 72/Peptide, HeLa Cells [1, 9] | RF (Relative Fluorescence), DOTMA/SEQ ID NO: 72/Peptide, HeLa Cells [1, 10] | RF (Relative Fluorescence), DOTMA/SEQ ID NO: 72/Peptide, HeLa Cells [1, 11] | RF (Relative Fluorescence), DOTMA/SEQ ID NO: 72/Peptide, HeLa Cells [1, 12] | RF (Relative Fluorescence) of Transfection of Jurkat Cells [2] | transfection expression and the % cells transfected over the no peptide control [3] | RF (Relative Fluorescence) of Transfection of HuVec Cells [4] | RF (Relative Fluorescence) of Transfection of Human Fibroblast Cells [5] | RF (Relative Fluorescence) of Transfection of C2C12 Cells [6] | RF (Relative Fluorescence) of Transfection of NL-1 iPS Cells [7] | RF (Relative Fluorescence) of Transfection of HeLa Cells [8]
367 (TDIPPCPHGWISLWK; Peptidic transfection agent) [compound 367] | 10427 | 21411 | 23001 | 17529 | 4365 | increased | 13354 | 10036 | 16207 | 17545 | 39008
365 (ISRCQVCMKKRH; Peptidic transfection agent) [compound 365] | 26620 | 43775 | 36054 | 21540 | 5298 | increased | 14764 | 5219 | 5390 | 6364 | 36093
218 (SPPRRARVT; Peptidic transfection agent) [compound 218] | 12686 | 13103 | 10151 | 10081 | 21451 | increased | 14827 | 11230 | 3706 | 17049 | 11179
353 (KKQRFRHRNRKGYRSQ; Peptidic transfection agent) [compound 353] | 36315 | 44772 | 36882 | 25802 | 11107 | increased | 8772 | 8653 | 4291 | 9248 | 29119
360 (GDLGRPGRKGRPGPP; Peptidic transfection agent) [compound 360] | 9946 | 11168 | 10381 | 8995 | 16607 | increased | 24042 | 5347 | 2090 | 27572 | 8516
323 (HQQDLGTAGSCLRKFSTMFLF; Peptidic transfection agent) [compound 323] | 15537 | 16620 | 10839 | 9244 | 2900 | increased | 12815 | 4826 | 7698 | 21694 | 14067
